# From ChEMBL document CHEMBL1287696, “N-substituted pyrrolidines and tetrahydrofurans as novel AMPAR positive modulators” (Bioorg Med Chem Lett, 2010)
# Legend:
# Glutamate receptor 2 [1] = biological target: T1, Glutamate receptor 2 (Homo sapiens, UniProt P42262); assay: Positive modulation of human GluA2 flip receptor by FLIPR assay
# Glutamate receptor 2 [2] = biological target: T1, Glutamate receptor 2; assay: Positive modulation of human GluA2 flip receptor by FLIPR assay relative to cyclothiazide; set-up: concentration or dose not given beside the values
# [3] = biological target: Voltage-gated inwardly rectifying potassium channel KCNH2 (Homo sapiens, UniProt Q12809); assay: Displacement of [3H]-dofetilide from human hERG
# Voltage-gated inwardly rectifying potassium channel KCNH2, sequence (Q12809 whole entry): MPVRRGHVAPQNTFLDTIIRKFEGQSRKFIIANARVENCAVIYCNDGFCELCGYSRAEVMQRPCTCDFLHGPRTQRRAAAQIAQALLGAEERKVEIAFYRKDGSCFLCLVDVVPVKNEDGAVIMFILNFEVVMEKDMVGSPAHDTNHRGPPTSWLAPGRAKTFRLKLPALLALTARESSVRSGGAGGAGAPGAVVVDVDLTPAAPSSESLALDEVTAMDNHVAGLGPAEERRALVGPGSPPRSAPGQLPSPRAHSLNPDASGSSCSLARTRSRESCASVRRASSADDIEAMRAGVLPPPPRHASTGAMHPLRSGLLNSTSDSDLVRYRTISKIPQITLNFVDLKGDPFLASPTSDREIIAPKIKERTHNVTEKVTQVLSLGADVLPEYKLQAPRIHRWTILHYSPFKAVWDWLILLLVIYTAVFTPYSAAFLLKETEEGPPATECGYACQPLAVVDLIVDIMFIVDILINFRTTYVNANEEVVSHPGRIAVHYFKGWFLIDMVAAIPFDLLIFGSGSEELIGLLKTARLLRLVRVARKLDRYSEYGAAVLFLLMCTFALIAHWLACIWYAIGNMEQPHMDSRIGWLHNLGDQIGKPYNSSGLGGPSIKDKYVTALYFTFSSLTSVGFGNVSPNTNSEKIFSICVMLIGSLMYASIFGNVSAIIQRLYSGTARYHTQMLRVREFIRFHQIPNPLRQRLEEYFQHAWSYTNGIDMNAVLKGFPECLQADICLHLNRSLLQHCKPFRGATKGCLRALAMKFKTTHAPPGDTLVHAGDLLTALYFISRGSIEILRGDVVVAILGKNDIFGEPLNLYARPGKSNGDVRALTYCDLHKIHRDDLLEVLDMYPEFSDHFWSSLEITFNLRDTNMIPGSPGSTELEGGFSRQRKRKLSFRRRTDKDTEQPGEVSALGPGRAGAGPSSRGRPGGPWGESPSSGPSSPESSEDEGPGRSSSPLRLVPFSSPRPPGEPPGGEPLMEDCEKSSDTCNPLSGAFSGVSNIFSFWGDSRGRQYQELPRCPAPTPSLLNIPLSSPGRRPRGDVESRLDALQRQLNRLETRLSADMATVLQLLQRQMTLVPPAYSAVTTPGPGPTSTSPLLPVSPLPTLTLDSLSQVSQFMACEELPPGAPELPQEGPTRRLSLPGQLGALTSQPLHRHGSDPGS
# Liver microsomes = assay: Intrinsic clearance in human liver microsomes; format: ADME, Microsome
# [4] = Aqueous solubility of the compound; format: physicochemical; settings: aqueous medium
# [5] = Ratio of drug level in brain to blood in rat
# [6] = Half life in rat; format: ADME, organism-based; settings: in vivo
# T1 sequence (P42262 whole entry): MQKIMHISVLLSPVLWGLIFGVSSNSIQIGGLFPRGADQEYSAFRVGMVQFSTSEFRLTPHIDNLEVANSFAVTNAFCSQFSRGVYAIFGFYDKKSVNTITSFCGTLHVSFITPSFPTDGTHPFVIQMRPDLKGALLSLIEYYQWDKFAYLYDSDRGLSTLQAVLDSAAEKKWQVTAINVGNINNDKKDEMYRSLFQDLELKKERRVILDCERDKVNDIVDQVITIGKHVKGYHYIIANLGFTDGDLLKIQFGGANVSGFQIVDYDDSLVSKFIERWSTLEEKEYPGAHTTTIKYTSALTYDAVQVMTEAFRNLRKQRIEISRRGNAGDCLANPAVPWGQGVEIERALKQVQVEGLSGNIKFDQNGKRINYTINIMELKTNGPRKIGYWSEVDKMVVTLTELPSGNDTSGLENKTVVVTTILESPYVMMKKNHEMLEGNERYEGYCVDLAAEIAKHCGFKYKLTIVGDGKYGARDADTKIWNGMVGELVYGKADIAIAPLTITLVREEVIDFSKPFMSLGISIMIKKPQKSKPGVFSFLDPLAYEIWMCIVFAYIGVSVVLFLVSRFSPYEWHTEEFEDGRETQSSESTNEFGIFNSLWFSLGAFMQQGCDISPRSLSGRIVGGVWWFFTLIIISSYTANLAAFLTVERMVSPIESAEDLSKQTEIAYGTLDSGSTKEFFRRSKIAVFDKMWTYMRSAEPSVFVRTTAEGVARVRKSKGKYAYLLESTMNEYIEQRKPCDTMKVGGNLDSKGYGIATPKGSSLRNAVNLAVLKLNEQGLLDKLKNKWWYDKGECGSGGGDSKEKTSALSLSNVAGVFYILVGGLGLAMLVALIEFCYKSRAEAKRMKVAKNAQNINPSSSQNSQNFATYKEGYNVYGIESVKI
SMILES,EC50 (Glutamate receptor 2 [1]) [µM],Activity (Glutamate receptor 2 [2]) [%],IC50 [3] [µM],CL (Liver microsomes) [mL/min/g],solubility [4] [µg/mL],Kp [5],half-life [6] [h]
"CC(C)S(=O)(=O)N[C@H]1CN(C)CC1c1ccc(-c2ccccc2F)cc1 (single isomer, unassigned)",2.5,20,–,–,–,–,–
"CC(=O)c1cccc(-c2ccc(C3COC[C@H]3NS(=O)(=O)C(C)C)cc2)c1 (single isomer, unassigned)",0.1,124,–,–,–,–,–
"CC(C)S(=O)(=O)N[C@@H]1COCC1c1ccc(-c2cncc(F)c2)cc1 (single isomer, unassigned)",0.3,131,> 63,0.6,–,–,–
"CC(C)S(=O)(=O)N[C@H]1CN(C)CC1c1ccc(-c2cccnc2F)cc1 (single isomer, unassigned)",2.5,101,6.3,–,–,–,–
"CC(C)S(=O)(=O)N[C@H]1CN(c2ccccc2)CC1c1ccc(-c2cccc(NS(C)(=O)=O)c2)cc1 (single isomer, unassigned)",5,38,–,–,–,–,–
"CC(C)N1CC(c2ccc(-c3cccc(NS(C)(=O)=O)c3)cc2)[C@@H](NS(=O)(=O)C(C)C)C1 (single isomer, unassigned)",–,89,–,0.7,–,–,–
"CC(C)S(=O)(=O)N[C@@H]1COCC1c1ccc(-c2ccsc2)cc1 (single isomer, unassigned)",0.4,120,–,–,–,–,–
"CC(C)S(=O)(=O)N[C@H]1CN(C)CC1c1ccc(-c2ccsc2)cc1 (single isomer, unassigned)",3.2,106,4,–,–,–,–
"CC(C)S(=O)(=O)N[C@@H]1COCC1c1ccc(-c2cccs2)cc1 (single isomer, unassigned)",0.3,117,> 63,–,–,–,–
"CC(=O)Nc1cccc(-c2ccc(C3CN(C)C[C@@H]3NS(=O)(=O)C(C)C)cc2)c1 (single isomer, unassigned)",4,79,12.6,–,–,–,–
"CC(C)S(=O)(=O)N[C@H]1CN(C)CC1c1ccc(-c2ccc(C#N)cc2)cc1 (single isomer, unassigned)",5,109,–,0.8,> 2700,1.8,> 2
"CCN1CC(c2ccc(-c3ccc(C#N)cc3)cc2)[C@@H](NS(=O)(=O)C(C)C)C1 (single isomer, unassigned)",7.9,90,–,1.2,–,–,–
"CC(C)S(=O)(=O)N[C@H]1CN(c2ccccc2)CC1c1ccc(-c2ccc(F)nc2)cc1 (single isomer, unassigned)",4,74,0.08,–,–,–,–
"CC(C)S(=O)(=O)N[C@@H]1COCC1c1ccc(-c2ccc(F)cn2)cc1 (single isomer, unassigned)",0.3,117,> 63,0.8,–,–,–
"CC(C)S(=O)(=O)N[C@H]1CN(C)CC1c1ccc(-c2cccs2)cc1 (single isomer, unassigned)",20,29,> 63,–,–,–,–
"CC(C)S(=O)(=O)N[C@H]1CN(c2ccccc2)CC1c1ccc(-c2ccc(C#N)cc2)cc1 (single isomer, unassigned)",6.2,48,0.8,–,–,–,–
"CC(C)S(=O)(=O)N[C@H]1CN(C)CC1c1ccc(-c2cccc(S(C)(=O)=O)c2)cc1 (single isomer, unassigned)",5,75,–,–,–,–,–
"CCN1CC(c2ccc(-c3cccc(NS(C)(=O)=O)c3)cc2)[C@@H](NS(=O)(=O)C(C)C)C1 (single isomer, unassigned)",1.6,111,2.5,0.7,–,–,–
"CC(C)S(=O)(=O)N[C@H]1CN(C)CC1c1ccc(-c2cccnc2)cc1 (single isomer, unassigned)",4,100,31.6,–,–,–,–
"CC(C)S(=O)(=O)N[C@H]1CN(C)CC1c1ccc(-c2ccc(F)nc2)cc1 (single isomer, unassigned)",5,117,1,0.8,–,–,–
"CC(C)S(=O)(=O)N[C@@H]1COCC1c1ccc(-c2ccc(C#N)cc2)cc1 (single isomer, unassigned)",0.5,112,12.6,–,–,–,–
"CC(C)S(=O)(=O)N[C@H]1CN(C)CC1c1ccc(-c2cccc(C(F)(F)F)c2)cc1 (single isomer, unassigned)",79.4,26,–,–,–,–,–
"CC(C)S(=O)(=O)N[C@H]1CN(C)CC1c1ccc(-c2cccc(NS(C)(=O)=O)c2)cc1 (single isomer, unassigned)",0.3,124,31.6,–,> 9000,–,–
"CC(C)N1CC(c2ccc(-c3ccc(C#N)cc3)cc2)[C@@H](NS(=O)(=O)C(C)C)C1 (single isomer, unassigned)",20,30,–,–,–,–,–
"CC(=O)c1cccc(-c2ccc(C3CN(C)C[C@@H]3NS(=O)(=O)C(C)C)cc2)c1 (single isomer, unassigned)",6.3,73,7.9,–,–,–,–
"CC(C)S(=O)(=O)N[C@@H]1COCC1c1ccc(-c2ccc(F)nc2)cc1 (single isomer, unassigned)",0.3,125,12.6,–,–,–,–
